Assay results published in US5942511A, “Allylthiopyridazine derivatives and process for preparing the same” (Kwon; Soon Kyoung, priority 1998, dated 1999).

How the values were obtained:
[1] = test system: serum LDH (lactate dehydrogenase); experiment: Effect of inhibiting hepatic disorder induced by acetaminophen (APAP): serum LDH; assay type: in vivo, male ICR mice; conditions: APAP 0.5 g/kg oral, compound 50 mg/kg per day oral, 3 days
Excerpt: (§1) In addition, the liver protective effects of the compound of the present invention can also be confirmed by acetaminophen model [see, Wang et al., Toxicology and applied Pharmacology, 136, 146-154, 1996]. Acetaminophen is rapidly metabolized by CYP2E1 to cause hepatic toxicity, which results in structural and functional change in liver cellular membrane, causing necrosis in hepatic lobule, an increase in blood ALT and LDH (lactate dehydrogenase) levels.
(§2) In the present invention, the inhibiting effect of the compound of formula (I) on hepatic disorder, induced by carbon tetrachloride and acetaminophene, was determined after oral administration of the novel compound according to the present invention to mouse as the experimental animal for 3 days. The degree of liver damage in respective experimental animal was determined by measuring ALT and LDH levels in blood [see, Biol. Pharm. Bull., 20, 4, 381-385, 1997; Toxicology and Applied Pharmacology, 95, 1-11, 1988], and further by removing the liver, staining (×100) the liver with hematoxylin and eosin and then observing with microscope to examine the degree of hepatocyte necrosis.
(§3) Effect of inhibiting hepatic disorder induced by acetaminophen (APAP)
(§4) The liver protective effect of the compound according to the present invention was examined according to the known method [see, Wang et al., Toxicology and applied Pharmacology, 136, 146-154, 1996] as specifically described below.
(§5) The compound according to the present invention was suspended in corn oil and the resulting suspension was administered in an amount of 1.0 ml/kg. Each group was composed of 3 to 10 male ICR mice (5-6 weeks) and the test compound was orally administered for 3 days in the dose of 50 mg/kg per day. After 2 hours from the last administration of the test compound, acetaminophen was orally administered in an amount of 0.5 g/kg. In this experiment, silymarin was used as the comparative compound. After 22 hours from the administration of acetaminphen, blood was taken from the individual test animal and ALT and LDH values in serum were determined. The results as obtained are described in the following Tables 4 and 5 (in which ALT and LDH values are represented by mean±SE). In addition, liver was removed from the test animals and then observed according to the same manner as Experiment 3 to evaluate the degree of hepatocyte necrosis.

[2] = test system: serum ALT (alanine aminotransferase); experiment: Effect of inhibiting hepatic disorder induced by carbon tetrachloride: serum ALT; assay type: in vivo, male ICR mice; conditions: CCl4 100 μl/kg i.p., compound 50 mg/kg per day oral, 3 days
Excerpt: First, the effects of allylthiopyridazine derivative of formula (I) for prevention and treatment of hepatic diseases was examined using carbon tetrachloride model and acetaminophen model.
Carbon tetrachloride model [see, Philippe letteron et al., Biochemical Pharmacology, 39, 12, 2027-2034, 1990] is most frequently used as an experimental model of hepatic disorder and has been established on the basis of the fact that carbon tetrachloride is converted into trichloromethyl free radical (CCl3 .), a highly toxic metabolite, by the action of cytochrome P-450 in body. This metabolite strongly binds with thiol group of liver microsomal membrane protein to produce a lipid radical, which is then converted into peroxy radical in the presence of oxygen, thereby stimulating the peroxidation reaction of membrane lipid. That is, carbon tetrachloride inhibits protein biosynthesis in liver, increases blood ALT (alanine aminotransferase) and causes centrilobular necrosis of liver cells.
as §2
Effect of inhibiting hepatic disorder induced by carbon tetrachloride
(§6) The liver protective effect of the compound according to the present invention was examined according to the known method [see, Philippe letteron et al., Biochemical Pharmacology, 39, 12, 2027-2034, 1990] as specifically described below.
(§7) The compound according to the present invention was suspended in corn oil and the resulting suspension was administered in an amount of 1.0 ml/kg. Each group was composed of 3 to 10 male ICR mice (5-6 weeks) and the test compound was orally administered for 3 days in the dose of 50 mg/kg per day. After the test compound was administered, carbon tetrachloride was intraperitoneally injected in an amount of 100 μl/kg. In this experiment, silymarin was used as the comparative compound. After 24 hours from administration of carbon tetrachloride, blood was taken from the test animal by cardiac perforation and ALT value in serum was determined. The result obtained is described in the following Table 2 (in which ALT value is represented by mean±SE). The ALT unit in serum was determined by centrifuging blood to separate serum as the supernatant, and then the separated serum were subjected to Reitman-Frankel method by means of a commercially available kit (BC101-O,P, Youngdong Pharm.). That is, DL-alanine and α-ketoglutarate were used as the substrate solution to which 2,4-dinitrophenylhydrazine was added to produce hydrazone. Then, sodium hydroxide was added to hydrazone to colorize and then the absorbance was measured at 505 nm.

[3] = test system: serum ALT (alanine aminotransferase); experiment: Effect of inhibiting hepatic disorder induced by acetaminophen (APAP): serum ALT; assay type: in vivo, male ICR mice; conditions: APAP 0.5 g/kg oral, compound 50 mg/kg per day oral, 3 days
Excerpt: as §1, §2, §3, §4, §5

ICR male mouse = experiment: Acute toxicity test, single oral administration; assay type: in vivo; conditions: 14 days
Method: (§8) Moreover, as a result of an acute toxicity test using mouse to evaluate the general toxicity of the compound according to the present invention, when the compound is single administered via oral route, the LD50 value of the respective compound is 3.5 g/kg or more. Therefore, the compound of the present invention is determined as being very safe.
(§9) The acute toxicity test was carried out to quantitatively and qualitatively examine the toxicity which occurs within a short period of time after a single administration of the test compound to the experimental animal.
(§10) In this experiment, the acute toxicity test was conducted using 5-6 weeks ICR male mouse obtained from Korea Experimental Animal Center. From 6 p.m., the day before administration of the test compound, to 9 a.m. the day on which the test compound is administered, mouse was fasted. The test compound was ground and suspended in corn oil and then administered in the dose of 1000 to 6000 mg/kg to the experimental animal. For each dose, 6 animals were used. The test compound was prepared and used on that day, and was single administered via oral route by means of a needle. After the compound of Example 4, as typical example of the compound according to the present invention was administered, the survived and died animals were observed during 14 days.

[4] = Acute toxicity test, single oral administration; assay type: in vivo; conditions: in vivo, mouse, Litchfield-Wilcoxon method, 95% confidence interval 3.26-4.78 g/kg (Example 4)
Method: as §8, §9, §10

hepatocyte necrosis = experiment: Effect of inhibiting hepatic disorder induced by carbon tetrachloride: hepatocyte necrosis; assay type: in vivo, male ICR mice; conditions: CCl4 model, 50 mg/kg per day oral, 3 days
Method: as §2, §6, §7
In addition, liver was removed from the test animals, stained (×100) with hematoxylin and eosin and then observed by microscope. The degree of hepatocyte necrosis was evaluated according to the following 5 grades: 0 no lesion, 1 mild lesion, 2 moderate lesion, 3 severe lesion and 4 diffused lesion.

## C=CCSc1ccc(OC)nn1 [Example 4, 3-methoxy-6-allylthiopyridazine]
[1]
  Inhibiting rate (serum LDH): 99.8%
[1]; mean±SE
  Serum LDH value: 703 ± 83 KA unit/l
[2]
  Inhibiting rate (serum ALT): 57%
[2]; mean±SE
  Serum ALT value: 3966 ± 1116 KA unit/l
[3]
  Inhibiting rate (serum ALT): 97%
[3]; mean±SE
  Serum ALT value: 186 ± 118 KA unit/l
ICR male mouse; 1000 mg/kg
  D/T (number of died animals / number of test animals): 0/6
ICR male mouse; 2000 mg/kg
  D/T (number of died animals / number of test animals): 0/6
ICR male mouse; 3000 mg/kg
  D/T (number of died animals / number of test animals): 1/6
ICR male mouse; 4000 mg/kg
  D/T (number of died animals / number of test animals): 3/6
ICR male mouse; 5000 mg/kg
  D/T (number of died animals / number of test animals): 4/6
ICR male mouse; 6000 mg/kg
  D/T (number of died animals / number of test animals): 6/6
[4]
  LD50 at 336 h: 3950 mg/kg
Hepatocyte necrosis; grade 0 no lesion
  Degree of necrosis 0: number of animals: 0
Hepatocyte necrosis; grade 1 mild lesion
  Degree of necrosis 1: number of animals: 1
Hepatocyte necrosis; grade 2 moderate lesion
  Degree of necrosis 2: number of animals: 5
Hepatocyte necrosis; grade 3 severe lesion
  Degree of necrosis 3: number of animals: 2
Hepatocyte necrosis; grade 4 diffused lesion
  Degree of necrosis 4: number of animals: 2
